Measurements published in the NIST ThermoML archive (doi:10.1016/j.jct.2012.02.017).
Numbers after ± are expanded uncertainties.

Key:
[1] = xn = mol fraction of the nth substance listed; conditions: Ring tensiometer
[2] = Ring tensiometer

[2H]O[2H] [water-d2] + CCO
surface tension liquid-gas [mN/m], [1]
Conditions	288.15 K	298.15 K	308.15 K	318.15 K
x2 = 0.0008	72.5 ± 0.96	70.96 ± 0.95	69.43 ± 0.94	67.73 ± 0.93
x2 = 0.0016	71.29 ± 0.95	69.78 ± 0.94	68.35 ± 0.93	66.43 ± 0.91
x2 = 0.0023	70.28 ± 0.94	68.67 ± 0.93	67.12 ± 0.92	65.55 ± 0.91
x2 = 0.0039	68.68 ± 0.93	66.88 ± 0.91	65.22 ± 0.9	63.52 ± 0.88
x2 = 0.007	65.31 ± 0.88	63.61 ± 0.87	61.92 ± 0.85	60.23 ± 0.83
x2 = 0.0116	62.13 ± 0.84	59.42 ± 0.82	58.1 ± 0.81	56.98 ± 0.8
x2 = 0.0191	57.62 ± 0.8	53.65 ± 0.76	52.63 ± 0.75	51.86 ± 0.75
x2 = 0.0295	52.54 ± 0.75	50.9 ± 0.73	48.05 ± 0.71	47.3 ± 0.7
x2 = 0.044	47.97 ± 0.71	46.07 ± 0.69	44.17 ± 0.68	42.27 ± 0.66
x2 = 0.0716	41.94 ± 0.66	38.62 ± 0.63	36.3 ± 0.61	33.32 ± 0.58
x2 = 0.1103	36.22 ± 0.61	34.15 ± 0.59	33.1 ± 0.58	31.3 ± 0.57
x2 = 0.157	32 ± 0.57	30.33 ± 0.56	29.1 ± 0.55	27.58 ± 0.54
x2 = 0.1991	30.52 ± 0.56	29.16 ± 0.55	28.14 ± 0.55	27.03 ± 0.54
x2 = 0.2462	29.15 ± 0.55	28.17 ± 0.55	27.39 ± 0.54	26.56 ± 0.53
x2 = 0.345	27.29 ± 0.54	25.99 ± 0.53	25.03 ± 0.52	24.63 ± 0.52
x2 = 0.4209	26.21 ± 0.53	25.23 ± 0.53	23.67 ± 0.51	22.85 ± 0.51
x2 = 0.4811	25.3 ± 0.53	24.59 ± 0.52	23.56 ± 0.51	22.7 ± 0.51
x2 = 0.5703	24.34 ± 0.52	23.44 ± 0.51	23.02 ± 0.51	22.3 ± 0.51
x2 = 0.6752	23.36 ± 0.51	22.45 ± 0.51	21.97 ± 0.5	21.57 ± 0.5
x2 = 0.7572	22.98 ± 0.51	21.59 ± 0.5	20.92 ± 0.5	20.9 ± 0.5
x2 = 0.8618	22.37 ± 0.51	21.48 ± 0.5	20.41 ± 0.49	20.11 ± 0.49

CCCO [propan-1-ol]
[2]
Conditions	surface tension liquid-gas [mN/m]
288.15 K	23.34 ± 0.52
298.15 K	22.54 ± 0.51
308.15 K	21.62 ± 0.5
318.15 K	20.99 ± 0.5

[2H]O[2H] [water-d2]
[2]
Conditions	surface tension liquid-gas [mN/m]
288.15 K	73.59 ± 0.94
298.15 K	71.87 ± 0.93
308.15 K	70.21 ± 0.91
318.15 K	68.84 ± 0.9

[2H]O[2H] [water-d2] + CCCO
surface tension liquid-gas [mN/m], [1]
Conditions	288.15 K	298.15 K	308.15 K	318.15 K
x2 = 0.0007	70.61 ± 1.1	68.81 ± 1.2	67.5 ± 1.2	66.16 ± 1.3
x2 = 0.002	66.37 ± 1	63.94 ± 1.1	62.32 ± 1.1	61.9 ± 1.2
x2 = 0.0033	62.9 ± 0.98	58.5 ± 0.97	56.44 ± 0.96	54.18 ± 1
x2 = 0.0047	60.07 ± 0.93	55.76 ± 0.93	53.57 ± 0.92	50.4 ± 1
x2 = 0.006	57.59 ± 0.86	54.16 ± 0.82	52.75 ± 0.8	48.26 ± 0.76
x2 = 0.0099	52.32 ± 0.78	48.49 ± 0.74	46.75 ± 0.73	45.22 ± 0.7
x2 = 0.0165	45.84 ± 0.7	43.67 ± 0.68	40.52 ± 0.65	39.54 ± 0.64
x2 = 0.0255	41.34 ± 0.66	39.38 ± 0.64	38.39 ± 0.63	37.11 ± 0.62
x2 = 0.038	36.34 ± 0.61	34.78 ± 0.6	33.31 ± 0.59	32.45 ± 0.58
x2 = 0.0622	29 ± 0.56	28.09 ± 0.55	27.45 ± 0.54	27.03 ± 0.54
x2 = 0.138	25.81 ± 0.53	24.9 ± 0.52	24.75 ± 0.52	23.58 ± 0.51
x2 = 0.1851	25.78 ± 0.53	25.09 ± 0.52	24.19 ± 0.52	23.62 ± 0.51
x2 = 0.2272	25.17 ± 0.52	24.99 ± 0.52	24.38 ± 0.52	23.37 ± 0.51
x2 = 0.351	24.57 ± 0.52	23.79 ± 0.52	23.5 ± 0.51	22.88 ± 0.51
x2 = 0.4933	24.2 ± 0.52	23.58 ± 0.51	22.8 ± 0.51	22.12 ± 0.5
x2 = 0.6187	23.84 ± 0.52	22.94 ± 0.51	22.54 ± 0.51	21.8 ± 0.5
x2 = 0.8296	23.48 ± 0.52	22.64 ± 0.51	22.46 ± 0.51	21.64 ± 0.5

CCO [ethanol]
[2]
Conditions	surface tension liquid-gas [mN/m]
288.15 K	22.08 ± 0.5
298.15 K	21.19 ± 0.5
308.15 K	20.35 ± 0.49
318.15 K	20.18 ± 0.49

CO [methanol]
[2]
Conditions	surface tension liquid-gas [mN/m]
288.15 K	22.37 ± 0.51
298.15 K	21.64 ± 0.5
308.15 K	20.94 ± 0.5
318.15 K	19.93 ± 0.49

[2H]O[2H] [water-d2] + CO
surface tension liquid-gas [mN/m], [1]
Conditions	288.15 K	298.15 K	308.15 K	318.15 K
x2 = 0.0045	71.03 ± 0.92	69.55 ± 0.91	68.1 ± 0.89	66.54 ± 0.88
x2 = 0.0154	66.2 ± 0.88	65.13 ± 0.86	64.17 ± 0.85	62.8 ± 0.84
x2 = 0.0304	61.24 ± 0.83	60.45 ± 0.82	59.67 ± 0.81	58.88 ± 0.81
x2 = 0.0509	56.43 ± 0.78	55.33 ± 0.77	54.09 ± 0.76	52.97 ± 0.75
x2 = 0.0707	52.83 ± 0.75	52.04 ± 0.74	51.25 ± 0.73	50.48 ± 0.73
x2 = 0.0896	50.23 ± 0.72	49.45 ± 0.72	48.65 ± 0.71	47.92 ± 0.7
x2 = 0.1252	45.79 ± 0.69	45.01 ± 0.68	44.56 ± 0.68	42.8 ± 0.66
x2 = 0.1737	42.45 ± 0.66	41.8 ± 0.65	40.26 ± 0.64	39.66 ± 0.63
x2 = 0.2171	38.51 ± 0.62	38.07 ± 0.62	37.7 ± 0.62	36.61 ± 0.61
x2 = 0.2684	36.01 ± 0.6	35.49 ± 0.6	35.1 ± 0.6	34.16 ± 0.59
x2 = 0.3133	34.68 ± 0.59	34.05 ± 0.59	33.49 ± 0.58	32.65 ± 0.58
x2 = 0.353	33.4 ± 0.58	32.79 ± 0.58	32.05 ± 0.57	31.79 ± 0.57
x2 = 0.4271	31.83 ± 0.57	30.79 ± 0.56	30.29 ± 0.56	29.42 ± 0.55
x2 = 0.5279	29.14 ± 0.55	29.01 ± 0.55	28.68 ± 0.55	27.75 ± 0.54
x2 = 0.691	26.15 ± 0.53	25.65 ± 0.53	25.06 ± 0.52	24.38 ± 0.52
x2 = 0.8173	23.49 ± 0.51	22.96 ± 0.51	22.48 ± 0.51	21.75 ± 0.5
